Series [1] has as its system B-Raf. As to the kind of experiment: B-Raf kinase activity biochemical assay (AlphaScreen, biotin-MEK1 phosphorylation). Conditions: for Biochemical activity ratio B/V600E: ratio of IC50 B-Raf / B-Raf V600E; for Biochemical activity ratio B/C: ratio of IC50 B-Raf / c-Raf-1. The essentials: (§1)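 Biotin-MEK1 phosphorylation measured after 45 min kinase reaction at RT with 100 μM ATP final; compounds tested at 8 points from 0.1 mM DMSO stock.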

Series [2] concerns the target B-Raf (Homo sapiens (Human), UniProt P15056). The description is as above. Conditions: B-Raf. The essentials:
as §1

The next series has as its target B-Raf V600E (Homo sapiens (Human), UniProt P15056, V600E). As to the kind of experiment: B-Raf V600E kinase activity biochemical assay (AlphaScreen, biotin-MEK1 phosphorylation). The following applies: for IC50: B-Raf V600E; for Biochemical activity ratio V600E/C: ratio of IC50 B-Raf V600E / c-Raf-1. In outline: as §1
In general terms: Alpha assays give light when donor and acceptor beads are brought close together.

For another series, the target named is CYP1A2 (Homo sapiens (Human), UniProt P05177). Nature of the series: CYP enzyme inhibition, fluorescent substrate (CEC). The following applies: human, 15 min. In outline:
(§2)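 Ten-point 1:1 compound dilutions in NADPH-regenerating cofactor mix, pre-incubated 10 min at 37 °C before enzyme/substrate addition: CYP1A2 0.5 pmol with 5 μM CEC, 15 min, 409 ex/460 em; CYP2D6 1.5 pmol with 1.5 μM AMMC, 30 min, 409 ex/530 em. IC50 from fluorescent product vs concentration.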

The next series has as its target CYP2D6 (Homo sapiens (Human), UniProt P10635). Nature of the series: CYP enzyme inhibition, fluorescent substrate (AMMC). It counts as in vitro ADME. The following applies: read-out: Cyp IC50 2D6. The essentials: as §2
For the next series, the target named is CYP2C9 (Homo sapiens (Human), UniProt P11712). As to the kind of experiment: CYP enzyme inhibition, fluorescent substrate (MFC). In outline:
(§3)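 IC50 values come from plotting product fluorescence against compound concentration; inhibition lowers formation of the fluorescent metabolite. Ten-point twofold dilutions in co-factor mix were held 10 minutes at 37 °C before the enzyme reaction, also run at 37 °C.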

Series [3] can be described thus: Relative solubility by turbidity threshold concentration in aqueous buffers (pH 1.5, 4.5, 6.8, 7.4). Format: physicochemical. Conditions: for turbidity threshold (L, M, H) 1.4: pH 1.4 [sic] (method: SGF pH 1.5); for turbidity threshold (L, M, H) 4.5: pH 4.5 (SIF); for turbidity threshold (L, M, H) 6.8: pH 6.8 (SIF); for turbidity threshold (L, M, H) 7.4: pH 7.4 (HEPES). In outline:
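Solubility class (high >250 μM, moderate 31.3–250 μM, low <31.3 μM) comes from the concentration where absorbance reaches a 0.01 threshold, averaged across 490/535/650 nm. Samples were compound dilutions from DMSO stock, 1 μL into 99 μL buffer at pH 1.5, 4.5, 6.8 or 7.4.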

The next series addresses c-Raf-1 (Homo sapiens, UniProt P04049). Nature of the series: c-Raf-1 kinase activity biochemical assay (AlphaScreen, biotin-MEK1 phosphorylation). The essentials: as §1
The next series addresses CYP2C19 (Homo sapiens (Human), UniProt P33261). As to the kind of experiment: CYP enzyme inhibition, fluorescent substrate (CEC). In outline: as §3
The target in another series is CYP3A4(BFC) (Homo sapiens (Human), UniProt P08684). Nature of the series: CYP enzyme inhibition, fluorescent substrate BFC. The essentials: as §3
For the next series, the target named is CYP3A4(BQ) (Homo sapiens (Human), UniProt P08684). As to the kind of experiment: CYP enzyme inhibition, fluorescent substrate BQ. Conditions: read-out: Cyp IC50 3A4(BQ); CYP3A4, substrate BQ. The protocol: CYP (Cytochrome P450) enzymes are the major drug metabolizing enzymes present in the liver. The inhibition of CYP enzyme activity (IC50) for each of CYP1A2, CYP2C19, CYP2C9, CYP2D6, CYP3A4(BFC) and CYP3A4(BQ) is determined for compounds, where inhibition of metabolism of a known substrate leads to a decrease in the fluorescence of the metabolized product. The fluorescence of the product is monitored as a function of compound concentration.
Compounds are dissolved in dimethyl sulfoxide to a concentration of 100 mM. These are diluted 1 μL into 82 μL of acetonitrile. […] These are then serially diluted 1:1 (160 μL to 160 μL co-factor mix) for a total of 10 points. A 10 μL aliquot of this final mixture is dispensed into 384 well assay plates and incubated for 10 minutes at 37° C. […] Assay plates are incubated at 37° C. […] The signal versus compound concentration is used to determine the IC50. The enzymes and substrates for this assay are obtained from BD Biosciences.

[4] abbreviates: read-out: Cyp IC50 2C9, CYP2C9, substrate MFC.
Where [5] appears, read: read-out: Cyp IC50 2C19, CYP2C19, substrate CEC.
The mark [6] stands for this setting: read-out: Cyp IC50 3A4(BFC), CYP3A4, substrate BFC.

Read-outs that look alike come from different tables or passages of the source.

Sequence of B-Raf (Homo sapiens (Human), UniProt P15056) (P15056 whole entry): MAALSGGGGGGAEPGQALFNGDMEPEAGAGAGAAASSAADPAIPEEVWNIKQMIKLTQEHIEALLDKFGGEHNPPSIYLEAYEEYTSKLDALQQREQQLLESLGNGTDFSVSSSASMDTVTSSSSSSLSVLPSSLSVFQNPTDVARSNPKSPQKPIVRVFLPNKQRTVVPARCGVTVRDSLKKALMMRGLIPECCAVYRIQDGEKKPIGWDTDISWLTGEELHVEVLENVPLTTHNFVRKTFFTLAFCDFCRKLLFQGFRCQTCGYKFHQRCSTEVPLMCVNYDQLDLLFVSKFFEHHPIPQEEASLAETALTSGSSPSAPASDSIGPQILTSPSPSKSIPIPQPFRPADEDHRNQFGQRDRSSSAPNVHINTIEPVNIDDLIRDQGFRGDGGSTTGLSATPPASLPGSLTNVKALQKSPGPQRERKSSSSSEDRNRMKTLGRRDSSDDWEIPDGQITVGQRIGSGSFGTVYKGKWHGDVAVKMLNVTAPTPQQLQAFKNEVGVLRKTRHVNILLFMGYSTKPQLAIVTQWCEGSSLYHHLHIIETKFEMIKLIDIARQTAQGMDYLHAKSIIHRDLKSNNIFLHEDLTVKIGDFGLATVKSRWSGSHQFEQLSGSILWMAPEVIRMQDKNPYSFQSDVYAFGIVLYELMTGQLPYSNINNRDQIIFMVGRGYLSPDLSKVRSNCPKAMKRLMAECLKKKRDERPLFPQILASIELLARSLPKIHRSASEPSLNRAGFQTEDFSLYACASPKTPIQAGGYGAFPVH
Sequence of CYP2D6 (P10635 whole entry): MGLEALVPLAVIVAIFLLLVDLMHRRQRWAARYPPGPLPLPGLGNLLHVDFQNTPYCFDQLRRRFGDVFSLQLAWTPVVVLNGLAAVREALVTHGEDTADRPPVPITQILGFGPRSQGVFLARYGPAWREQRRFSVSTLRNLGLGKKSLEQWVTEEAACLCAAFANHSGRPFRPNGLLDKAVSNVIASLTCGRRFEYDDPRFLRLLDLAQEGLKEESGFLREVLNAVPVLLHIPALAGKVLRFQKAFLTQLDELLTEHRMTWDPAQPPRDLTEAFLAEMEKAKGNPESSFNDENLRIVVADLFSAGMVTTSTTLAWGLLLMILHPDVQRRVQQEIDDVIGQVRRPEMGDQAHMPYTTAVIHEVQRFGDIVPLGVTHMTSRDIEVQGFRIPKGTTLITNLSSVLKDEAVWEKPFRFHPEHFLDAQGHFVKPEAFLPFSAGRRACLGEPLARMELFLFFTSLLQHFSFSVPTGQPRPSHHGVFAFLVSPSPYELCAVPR
Sequence of CYP2C9 (P11712 whole entry): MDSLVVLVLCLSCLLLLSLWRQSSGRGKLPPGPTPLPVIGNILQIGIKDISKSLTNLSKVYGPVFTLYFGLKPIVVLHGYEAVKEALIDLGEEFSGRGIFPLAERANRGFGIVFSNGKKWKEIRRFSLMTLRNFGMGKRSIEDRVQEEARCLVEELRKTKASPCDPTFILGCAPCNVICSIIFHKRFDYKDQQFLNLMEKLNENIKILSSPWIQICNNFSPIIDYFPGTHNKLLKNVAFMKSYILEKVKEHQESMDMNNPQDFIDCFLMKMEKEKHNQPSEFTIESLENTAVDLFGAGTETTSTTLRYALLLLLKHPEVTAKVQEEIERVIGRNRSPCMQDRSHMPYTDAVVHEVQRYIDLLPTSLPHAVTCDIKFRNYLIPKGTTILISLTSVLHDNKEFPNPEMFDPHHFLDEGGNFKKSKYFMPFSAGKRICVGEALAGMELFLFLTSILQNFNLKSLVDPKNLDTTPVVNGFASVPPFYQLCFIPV
Sequence of CYP2C19 (P33261 whole entry): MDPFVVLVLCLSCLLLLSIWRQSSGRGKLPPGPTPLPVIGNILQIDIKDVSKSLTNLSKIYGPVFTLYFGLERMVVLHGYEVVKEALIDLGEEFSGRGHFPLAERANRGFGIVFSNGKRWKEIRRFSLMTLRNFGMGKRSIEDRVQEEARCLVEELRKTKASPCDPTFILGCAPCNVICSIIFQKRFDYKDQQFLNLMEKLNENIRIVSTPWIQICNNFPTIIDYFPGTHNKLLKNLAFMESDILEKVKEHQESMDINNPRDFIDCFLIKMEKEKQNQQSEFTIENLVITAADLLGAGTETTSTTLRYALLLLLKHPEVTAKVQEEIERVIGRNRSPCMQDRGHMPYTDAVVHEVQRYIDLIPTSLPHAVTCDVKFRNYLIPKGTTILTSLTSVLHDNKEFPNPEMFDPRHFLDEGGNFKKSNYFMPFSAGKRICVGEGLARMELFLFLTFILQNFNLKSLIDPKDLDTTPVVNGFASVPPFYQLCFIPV
Sequence of CYP3A4(BQ) (P08684 whole entry): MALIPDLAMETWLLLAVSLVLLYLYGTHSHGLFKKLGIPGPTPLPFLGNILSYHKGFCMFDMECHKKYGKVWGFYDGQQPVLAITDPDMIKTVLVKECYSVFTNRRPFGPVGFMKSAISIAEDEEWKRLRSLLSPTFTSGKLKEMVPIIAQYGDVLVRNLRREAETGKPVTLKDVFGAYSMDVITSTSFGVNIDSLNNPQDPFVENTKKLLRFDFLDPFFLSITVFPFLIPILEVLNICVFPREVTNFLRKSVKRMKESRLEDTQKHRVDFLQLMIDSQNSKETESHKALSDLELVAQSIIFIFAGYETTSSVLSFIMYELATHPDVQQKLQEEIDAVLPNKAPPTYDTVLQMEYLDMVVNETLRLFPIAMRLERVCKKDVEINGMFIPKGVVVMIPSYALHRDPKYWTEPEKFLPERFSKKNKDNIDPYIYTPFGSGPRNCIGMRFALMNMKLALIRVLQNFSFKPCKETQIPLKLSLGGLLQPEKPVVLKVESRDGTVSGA
Sequence of CYP3A4(BFC) (P08684 whole entry): as above
Sequence of CYP1A2 (P05177 whole entry): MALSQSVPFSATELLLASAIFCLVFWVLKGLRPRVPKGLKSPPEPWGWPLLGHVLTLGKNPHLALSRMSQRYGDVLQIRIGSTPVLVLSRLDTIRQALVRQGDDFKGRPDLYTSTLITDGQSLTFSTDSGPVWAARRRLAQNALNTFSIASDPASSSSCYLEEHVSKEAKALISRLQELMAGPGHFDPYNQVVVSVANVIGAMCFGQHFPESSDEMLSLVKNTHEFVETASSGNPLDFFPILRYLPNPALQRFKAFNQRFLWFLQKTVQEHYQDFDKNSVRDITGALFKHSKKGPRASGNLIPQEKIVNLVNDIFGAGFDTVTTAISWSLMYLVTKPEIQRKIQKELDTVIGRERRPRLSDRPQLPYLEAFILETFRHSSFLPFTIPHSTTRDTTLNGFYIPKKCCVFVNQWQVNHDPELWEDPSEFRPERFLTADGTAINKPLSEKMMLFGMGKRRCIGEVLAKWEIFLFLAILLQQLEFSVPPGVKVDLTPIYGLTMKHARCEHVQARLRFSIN
Sequence of B-Raf V600E (P15056 whole entry V600E): as the sequence (P15056 whole entry) above, with V600E counted along it
Sequence of c-Raf-1 (P04049 whole entry, looked up): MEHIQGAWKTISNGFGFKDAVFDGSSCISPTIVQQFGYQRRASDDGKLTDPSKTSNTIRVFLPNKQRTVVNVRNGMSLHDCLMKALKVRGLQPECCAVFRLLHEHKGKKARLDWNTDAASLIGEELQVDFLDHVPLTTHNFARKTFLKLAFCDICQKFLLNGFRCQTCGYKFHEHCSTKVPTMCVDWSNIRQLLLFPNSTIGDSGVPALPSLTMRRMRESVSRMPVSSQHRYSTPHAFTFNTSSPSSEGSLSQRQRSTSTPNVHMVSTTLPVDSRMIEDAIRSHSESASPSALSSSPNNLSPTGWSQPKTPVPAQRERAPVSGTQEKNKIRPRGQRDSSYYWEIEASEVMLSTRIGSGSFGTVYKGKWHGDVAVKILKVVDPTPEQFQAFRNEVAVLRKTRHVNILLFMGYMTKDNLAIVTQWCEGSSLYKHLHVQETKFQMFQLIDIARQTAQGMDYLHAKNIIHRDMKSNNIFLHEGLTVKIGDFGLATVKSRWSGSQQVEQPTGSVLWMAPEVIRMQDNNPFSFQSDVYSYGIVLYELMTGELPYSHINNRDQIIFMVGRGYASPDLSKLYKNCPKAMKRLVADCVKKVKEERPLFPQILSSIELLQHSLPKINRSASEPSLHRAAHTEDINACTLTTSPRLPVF

`CCCc1ccc(S(=O)(=O)Nc2ccc(F)c(C(=O)c3c[nH]c4ncnc(Cl)c34)c2F)cc1` [P-1034, N-[3-(4-Chloro-7H-pyrrolo[2,3-d]pyrimidine-5-carbonyl)-2,4-difluoro-phenyl]-4-propyl-benzenesulfonamide]: in the series on B-Raf [1], the “Biochemical activity ratio B/V600E” value is 0.1-10. Also, the “Biochemical activity ratio B/C” value in the series with B-Raf [1] was 0.1-10. The IC50 (usually the concentration at which inhibition is half-maximal) against B-Raf [2] was greater than 0.1 µM; against B-Raf V600E, greater than 0.1 µM; on CYP1A2 it was greater than 10 µM; at CYP2D6, greater than 10 µM; on CYP2C9 (setting [4]), greater than 10 µM; on c-Raf-1, less than 0.1 µM. Also, the IC50 on CYP2C19 and against CYP3A4(BFC) was 5 to 10 µM each time. For the same compound, the “Biochemical activity ratio V600E/C” value at B-Raf V600E is reported as greater than 10. In addition, in series [3], the “turbidity threshold (L, M, H) 1.4” value is “M (moderate solubility if the threshold concentration is 31.3 μM to 250 μM)”. In addition, in series [3], the “turbidity threshold (L, M, H) 4.5” value is “M (moderate solubility if the threshold concentration is 31.3 μM to 250 μM)”. Besides, in [3], the “turbidity threshold (L, M, H) 6.8” value is recorded as “M (moderate solubility if the threshold concentration is 31.3 μM to 250 μM)”. Also, the “turbidity threshold (L, M, H) 7.4” value in [3] is on record as “M (moderate solubility if the threshold concentration is 31.3 μM to 250 μM)”.

On to `O=C(c1c(F)ccc(NS(=O)(=O)c2ccc(C(F)(F)F)cc2)c1F)c1c[nH]c2ncnc(NC3CCCC3)c12` [P-1035, N-[3-(4-Cyclopentylamino-7H-pyrrolo[2,3-d]pyrimidine-5-carbonyl)-2,4-difluoro-phenyl]-4-trifluoromethyl-benzenesulfonamide], for which the “Biochemical activity ratio B/V600E” value in the series with B-Raf [1] was 0.1-10. Further, the “Biochemical activity ratio B/C” value in the series with B-Raf [1] is recorded as greater than 10. Moreover, the IC50 against B-Raf [2] is less than 0.1 µM; on B-Raf V600E, less than 0.1 µM; at CYP1A2 it was greater than 10 µM; on CYP2D6, greater than 10 µM; at CYP2C9 (setting [4]), greater than 10 µM; against c-Raf-1, less than 0.1 µM. Further, the IC50 against CYP2C19 and on CYP3A4(BFC) was 5 to 10 µM throughout. At B-Raf V600E, the “Biochemical activity ratio V600E/C” value is reported as greater than 10. In addition, the “turbidity threshold (L, M, H) 1.4” value in series [3] is given as “L (low solubility if the threshold concentration is <31.3 μM)”. For the same compound, the “turbidity threshold (L, M, H) 4.5” value in series [3] is listed as “L (low solubility if the threshold concentration is <31.3 μM)”. The “turbidity threshold (L, M, H) 6.8” value in series [3] is listed as “L (low solubility if the threshold concentration is <31.3 μM)”. Further, the “turbidity threshold (L, M, H) 7.4” value in [3] is listed as “L (low solubility if the threshold concentration is <31.3 μM)”.

In the case of `O=C(c1c(F)ccc(NS(=O)(=O)c2ccc(C(F)(F)F)cc2)c1F)c1c[nH]c2ncnc(Nc3ccccc3)c12` [P-1037, N-[2,4-Difluoro-3-(4-phenylamino-7H-pyrrolo[2,3-d]pyrimidine-5-carbonyl)-phenyl]-4-trifluoromethyl-benzenesulfonamide], in the series on B-Raf [1], the “Biochemical activity ratio B/V600E” value is on record as 0.1-10. For the same compound, the “Biochemical activity ratio B/C” value with B-Raf [1] is recorded as greater than 10. For the same compound, the IC50 against B-Raf [2] is less than 0.1 µM; on B-Raf V600E it was greater than 0.1 µM; against CYP1A2, greater than 10 µM; on CYP2D6, greater than 10 µM; on CYP2C9 (setting [4]), greater than 10 µM; against c-Raf-1, less than 0.1 µM. The IC50 on CYP2C19 (setting [5]) is less than 5 µM; at CYP3A4(BFC) (setting [6]), greater than 10 µM. Moreover, the “Biochemical activity ratio V600E/C” value on B-Raf V600E was greater than 10. Further, the “turbidity threshold (L, M, H) 1.4” value in [3] is on record as “L (low solubility if the threshold concentration is <31.3 μM)”. In [3], the “turbidity threshold (L, M, H) 4.5” value is reported as “L (low solubility if the threshold concentration is <31.3 μM)”. Further, the “turbidity threshold (L, M, H) 6.8” value in series [3] is listed as “L (low solubility if the threshold concentration is <31.3 μM)”. Also, the “turbidity threshold (L, M, H) 7.4” value in series [3] was “L (low solubility if the threshold concentration is <31.3 μM)”.

In the case of `CC(C)Nc1ncnc2[nH]cc(C(=O)c3c(F)ccc(NS(=O)(=O)c4ccc(C(F)(F)F)cc4)c3F)c12` [P-1039, N-[2,4-Difluoro-3-(4-isopropylamino-7H-pyrrolo[2,3-d]pyrimidine-5-carbonyl)-phenyl]-4-trifluoromethyl-benzenesulfonamide], in the series with B-Raf [1], the “Biochemical activity ratio B/V600E” value was 0.1-10. For the same compound, the “Biochemical activity ratio B/C” value with B-Raf [1] was greater than 10. The IC50 is less than 0.1 µM against B-Raf [2]; less than 0.1 µM against B-Raf V600E; greater than 10 µM against CYP1A2; greater than 10 µM on CYP2D6; greater than 10 µM at CYP2C9 (setting [4]); less than 0.1 µM at c-Raf-1. The IC50 is greater than 10 µM on CYP2C19 (setting [5]) and 5 to 10 µM against CYP3A4(BFC). Moreover, the “Biochemical activity ratio V600E/C” value on B-Raf V600E is greater than 10. For the same compound, in series [3], the “turbidity threshold (L, M, H) 1.4” value was “M (moderate solubility if the threshold concentration is 31.3 μM to 250 μM)”. Besides, the “turbidity threshold (L, M, H) 4.5” value in series [3] was “M (moderate solubility if the threshold concentration is 31.3 μM to 250 μM)”. For the same compound, the “turbidity threshold (L, M, H) 6.8” value in series [3] is given as “M (moderate solubility if the threshold concentration is 31.3 μM to 250 μM)”. In series [3], the “turbidity threshold (L, M, H) 7.4” value is “M (moderate solubility if the threshold concentration is 31.3 μM to 250 μM)”.

For the compound `CCCS(=O)(=O)Nc1ccc(F)c(C(=O)c2c[nH]c3ncnc(NCc4ccccc4)c23)c1F` [P-1074, Propane-1-sulfonic acid [3-(4-benzylamino-7H-pyrrolo[2,3-d]pyrimidine-5-carbonyl)-2,4-difluoro-phenyl]-amide], the IC50 at CYP3A4(BQ), at CYP1A2, at CYP2D6, at CYP2C9 (setting [4]), on CYP2C19 (setting [5]) and at CYP3A4(BFC) (setting [6]) was greater than 10 µM in each case.

For the compound `CCCS(=O)(=O)Nc1ccc(F)c(C(=O)c2c[nH]c3ncnc(Nc4ccc(OC)nc4)c23)c1F` [P-1090, Propane-1-sulfonic acid {2,4-difluoro-3-[4-(6-methoxy-pyridin-3-ylamino)-7H-pyrrolo[2,3-d]pyrimidine-5-carbonyl]-phenyl}-amide], the IC50 on CYP3A4(BQ), at CYP1A2, on CYP2D6, at CYP2C9 (setting [4]), at CYP2C19 (setting [5]) and on CYP3A4(BFC) (setting [6]) was greater than 10 µM each time.

Turning to `CC(C)Nc1ncnc2[nH]cc(C(=O)c3c(F)ccc(NS(=O)(=O)c4cc(F)ccc4F)c3F)c12` [P-1111, N-[2,4-Difluoro-3-(4-isopropylamino-7H-pyrrolo[2,3-d]pyrimidine-5-carbonyl)-phenyl]-2,5-difluoro-benzenesulfonamide], the IC50 at CYP3A4(BQ) is greater than 10 µM; against CYP1A2 it was greater than 10 µM; at CYP2D6, greater than 10 µM; against CYP2C9, 5 to 10 µM; at CYP2C19 (setting [5]), greater than 10 µM; at CYP3A4(BFC) (setting [6]), greater than 10 µM.

Take `O=C(c1c(F)ccc(NS(=O)(=O)c2cc(F)ccc2F)c1F)c1c[nH]c2ncnc(NCC3CC3)c12` [P-1137, N-{3-[4-(Cyclopropylmethyl-amino)-7H-pyrrolo[2,3-d]pyrimidine-5-carbonyl]-2,4-difluoro-phenyl}-2,5-difluoro-benzenesulfonamide]: the IC50 on CYP3A4(BQ), against CYP1A2, at CYP2D6, on CYP2C9 (setting [4]), at CYP2C19 (setting [5]) and on CYP3A4(BFC) (setting [6]) was greater than 10 µM each time.

As for `COc1cccc(Nc2ncnc3[nH]cc(C(=O)c4c(F)ccc(NS(=O)(=O)c5cc(F)ccc5F)c4F)c23)c1` [P-1139, N-{2,4-Difluoro-3-[4-(3-methoxy-phenylamino)-7H-pyrrolo[2,3-d]pyrimidine-5-carbonyl]-phenyl}-2,5-difluoro-benzenesulfonamide], the IC50 on CYP3A4(BQ), against CYP1A2, at CYP2D6, on CYP2C9 (setting [4]), at CYP2C19 (setting [5]) and on CYP3A4(BFC) (setting [6]) was greater than 10 µM in each case.

(Values after patent publication US9617267B2, “Compounds and methods for kinase modulation, and indications therefor” (Plexxikon Inc., priority 2009, dated 2017).)
